Values after ≈ are worked out from the molar mass of the structure shown. Read-outs that look alike come from different tables or passages of the source.
How the values were obtained:
[1] = test system: Haemophilus influenzae 76; assay: MIC, standard agar-dilution assay; type: cell-based
Description: (§1) The MIC's in Table II were determined by standard agar-dilution assays. The MIC's in Table III were obtained using a conventional broth-dilution microtiter test.

[2] = test system: Staphylococcus epidermidis EPI2; assay: MIC, standard agar-dilution assay; type: cell-based; conditions: Staphylococcus epidermidis, EPI2
Description: as §1

[3] = test system: Haemophilus influenzae C.L.; assay: MIC, standard agar-dilution assay; type: cell-based; conditions: Haemophilus influenzae
Description: as §1

[4] = test system: Staphylococcus aureus X400; assay: MIC, standard agar-dilution assay; type: cell-based; conditions: Staphylococcus aureus, X400
Description: as §1

[5] = test system: Streptococcus pyogenes C203; assay: Protection of mice experimentally infected with S. pyogenes C203; type: in vivo
Description: Some of the derivatives of this invention have shown in vivo antimicrobial activity against experimentally-induced infections in laboratory animals. When two doses of test compound were administered to mice experimentally infected with S. pyogenes C203, the activity observed was measured as an ED50 value [effective dose in mg/kg to protect 50% of the test animals: see Warren Wick, et al., J. Bacteriol. 81, 233-235 (1961)].

[6] = test system: Staphylococcus aureus S13E; assay: microbe, parasite or virus in culture; type: cell-based
Description: as §1

[7] = test system: Staphylococcus epidermidis EPI1; assay: microbe, parasite or virus in culture; type: cell-based; conditions: Staphylococcus epidermidis, EPI1
Description: as §1

[8] = test system: Staphylococcus aureus V41; assay: MIC, standard agar-dilution assay; type: cell-based
Description: (§2) Certain of the derivatives are active against some gram-negative bacteria, such as Pasteurella species. The MIC's in Table II were determined by standard agar-dilution assays. The MIC's in Table III were obtained using a conventional broth-dilution microtiter test.

[9] = test system: Streptococcus Group D X66; assay: MIC, standard agar-dilution assay; type: cell-based
Description: as §2

[10] = test system: Klebsiella pneumoniae KAE; assay: MIC, standard agar-dilution assay; type: cell-based
How it was run: (§3)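 Agar plates containing graded compound levels gave the Klebsiella value. Graded broth dilutions in microtiter plates gave the Pasteurella and Mycoplasma values.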

[11] = test system: Staphylococcus aureus X1.1; assay: MIC, standard agar-dilution assay; type: cell-based; conditions: Staphylococcus aureus, X1.1
How it was run: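 A standard agar-dilution assay was used to test compounds against the Staphylococcus aureus isolate X1.1. Bacterial growth on agar with different compound concentrations was assessed, and the minimum inhibitory concentration was recorded in ug/mL.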

[12] = test system: Streptococcus pyogenes 9960; assay: MIC, standard agar-dilution assay; type: cell-based
Description: as §2

[13] = test system: Streptococcus pneumoniae Park I; assay: MIC, standard agar-dilution assay; type: cell-based; conditions: Streptococcus pneumoniae
Description: as §2

[14] = test system: Streptococcus pyogenes C203; assay: MIC, standard agar-dilution assay; type: cell-based
Description: as §2

Escherichia coli TEM = assay: MIC, standard agar-dilution assay; type: cell-based; conditions: Escherichia coli
How it was run: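 Antibacterial activity toward the gram-negative organism Escherichia coli was assessed by conventional agar dilution. The MIC, reported in ug/mL, is the minimum compound concentration on agar that prevents growth.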

[15] = test system: Klebsiella pneumoniae X26; assay: MIC, standard agar-dilution assay; type: cell-based; conditions: Klebsiella pneumoniae, X26
How it was run: as §3

Escherichia coli EC14 = assay: MIC, standard agar-dilution assay; type: cell-based; conditions: Escherichia coli, EC14
Description: as §2

[16] = test system: Pasteurella hemolytica 41D; assay: MIC, conventional broth-dilution microtiter test; type: cell-based
How it was run: as §3

Mycoplasma synoviae = assay: MIC, conventional broth-dilution microtiter test; type: cell-based; conditions: Mycoplasmopsis synoviae
How it was run: (§4)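 Two formats were used. Broth dilution in microtiter plates served for Pasteurella and Mycoplasma, while agar dilution served for Klebsiella.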

[17] = test system: Pasteurella multocida 68C; assay: MIC, conventional broth-dilution microtiter test; type: cell-based
How it was run: as §3

[18] = test system: Pasteurella hemolytica 22C; assay: MIC, conventional broth-dilution microtiter test; type: cell-based
How it was run: as §3

Mycoplasma gallisepticum = assay: MIC, conventional broth-dilution microtiter test; type: cell-based; conditions: Mycoplasmoides gallisepticum
How it was run: as §3

[19] = test system: Pasteurella multocida 60A; assay: MIC, conventional broth-dilution microtiter test; type: cell-based
How it was run: as §3

[20] = test system: Mycoplasma gallisepticum 34159; assay: MIC, conventional broth-dilution microtiter test; type: cell-based; conditions: Mycoplasmoides gallisepticum
How it was run: as §3

Mycoplasma hyorhinis = assay: MIC, conventional broth-dilution microtiter test; type: cell-based
How it was run: as §4

[21] = test system: Pasteurella multocida 40G; assay: MIC, conventional broth-dilution microtiter test; type: cell-based
How it was run: as §3

[22] = test system: Pasteurella multocida 22A; assay: MIC, conventional broth-dilution microtiter test; type: cell-based
How it was run: as §3

[23] = test system: Pasteurella multocida 17E; assay: MIC, conventional broth-dilution microtiter test; type: cell-based
How it was run: as §3

Streptococcus sp. 80 = assay: MIC, conventional broth-dilution microtiter test; type: cell-based
Description: as §2

[24] = test system: Pasteurella hemolytica 23C; assay: MIC, conventional broth-dilution microtiter test; type: cell-based
How it was run: as §3

[25] = test system: Mycoplasma gallisepticum 41313; assay: MIC, conventional broth-dilution microtiter test; type: cell-based; conditions: Mycoplasmoides gallisepticum
How it was run: as §3

Staphylococcus aureus = assay: MIC, conventional broth-dilution microtiter test; type: cell-based
Description: as §2

Pasteurella multocida = assay: Pasteurella infection in one-day old chicks; type: in vivo; conditions: subcutaneous, 30 mg/kg × 2, 1 and 4 hours post-challenge
Description: Certain of the formula 1 compounds of this invention have also shown in vivo activity against infections induced by gram-negative bacteria. Table V summarizes the results of tests in which illustrative compounds were evaluated against a Pasteurella infection in one-day old chicks. The compounds were administered parenterally after challenge of the chicks with Pasteurella multocida (0.1 ml of a 10^-4 dilution of a twenty-hour tryptose broth culture of an avian P. multocida given subcutaneously). In these tests, unless indicated otherwise, all non-medicated infected chicks died within 24 hours of Pasteurella challenge. In the tests summarized in Table V, the compounds were administered by subcutaneous injection at a dosage of 30 mg/kg, 1 and 4 hours post-challenge of the chicks with P. multocida.

`CCC1OC(=O)CC(O)C(C)C(OC2OC(C)C(O)C(N(C)C)C2O)C(CCOC(=O)Cc2ccccc2)CC(C)C(=O)C=CC(C)=CC1CO` (centres unmarked) [Compound 1, 20-O-Phenylacetyl-20-dihydro-OMT] was tested, and the MIC ([1]; Haemophilus influenzae, 76) was 16 µg/mL (≈ 22.3 µM), the MIC [2] was 1 µg/mL (≈ 1.39 µM) and the MIC [3] was 16 µg/mL (≈ 22.3 µM). The MIC [4] was 2 µg/mL (≈ 2.79 µM), the ED50 ([5]; C203, po, read-out: ED50 Oral) was > 100 mg/kg and the ED50 ([5]; C203, sc, read-out: ED50 Subcutaneous) was > 30 mg/kg. It also gave an MIC [6] of 1 µg/mL (≈ 1.39 µM), an MIC [7] of 0.5 µg/mL (≈ 0.696 µM) and an MIC ([8]; Staphylococcus aureus, V41) of 1 µg/mL (≈ 1.39 µM). For the same molecule, the MIC [9] was 2 µg/mL (≈ 2.79 µM), the MIC ([10]; Klebsiella pneumoniae) was > 128 µg/mL and the MIC [11] was 1 µg/mL (≈ 1.39 µM). The MIC [12]; 9960 was 2 µg/mL (≈ 2.79 µM), the MIC [13] was 0.5 µg/mL (≈ 0.696 µM) and the MIC ([14]; Streptococcus pyogenes, C203) was 1 µg/mL (≈ 1.39 µM). For the same molecule, the MIC (Escherichia coli TEM) was 16 µg/mL (≈ 22.3 µM), the MIC [15] was 4 µg/mL (≈ 5.57 µM) and the MIC (Escherichia coli EC14) was 64 µg/mL (≈ 89.1 µM). It also gave an MIC ([16]; Pasteurella, 41D) of 12.5 µg/mL (≈ 17.4 µM), an MIC (Mycoplasma synoviae) of 50 µg/mL (≈ 69.6 µM) and an MIC ([17]; Pasteurella multocida, 68C) of 6.25 µg/mL (≈ 8.71 µM). For the same molecule, the MIC ([18]; Pasteurella, 22C) was 25 µg/mL (≈ 34.8 µM), the MIC (Mycoplasma gallisepticum) was 3.12 µg/mL (≈ 4.35 µM) and the MIC ([19]; Pasteurella multocida, 60A) was 25 µg/mL (≈ 34.8 µM). For the same molecule, the MIC [20]; 34159 was 6.25 µg/mL (≈ 8.71 µM), the MIC (Mycoplasma hyorhinis; Mycoplasma) was > 50 µg/mL and the MIC ([21]; Pasteurella multocida, 40G) was 25 µg/mL (≈ 34.8 µM). For the same molecule, the MIC ([22]; Pasteurella multocida, 22A) was 25 µg/mL (≈ 34.8 µM), the MIC ([23]; Pasteurella multocida, 17E) was 12.5 µg/mL (≈ 17.4 µM) and the MIC (Streptococcus sp. 80; Streptococcus, SP.80) was 3.12 µg/mL (≈ 4.35 µM). For the same molecule, the MIC ([24]; Pasteurella, 23C) was 12.5 µg/mL (≈ 17.4 µM), the MIC [25]; 41313 was 50 µg/mL (≈ 69.6 µM) and the MIC (Staphylococcus aureus) was 3.12 µg/mL (≈ 4.35 µM). For the same molecule, the “Number of Deaths/Number Treated” value (Pasteurella multocida) was 9/10.
Work on `CCC1OC(=O)CC(O)C(C)C(OC2OC(C)C(O)C(N(C)C)C2O)C(CCNCc2ccccc2)CC(C)C(=O)C=CC(C)=CC1CO` (centres unmarked) [Compound 4, 20-N-Benzylamino-20-deoxy-20-dihydro-OMT] yielded an MIC ([1]; agar-dilution, Haemophilus influenzae 76, Ampicillin-resistant strain, read-out: MIC) of 2 µg/mL (≈ 2.9 µM), an MIC [2] of 32 µg/mL (≈ 46.5 µM) and an MIC [3] of 2 µg/mL (≈ 2.9 µM). The MIC [4] was 32 µg/mL (≈ 46.5 µM), the ED50 ([5]; C203, mice, oral, mg/kg × 2, doses given 1 and 4 hours postinfection, read-out: ED50 Oral) was > 100 mg/kg and the ED50 ([5]; C203, sc, mice, subcutaneous, mg/kg × 2, doses given 1 and 4 hours postinfection, read-out: ED50 Subcutaneous) was 16.1 mg/kg. For the same molecule, the MIC [6] was 8 µg/mL (≈ 11.6 µM), the MIC [7] was 4 µg/mL (≈ 5.81 µM) and the MIC ([8]; agar-dilution, Staphylococcus aureus V41, Penicillin-resistant strain, read-out: MIC) was 16 µg/mL (≈ 23.2 µM). For the same molecule, the MIC [9] was 16 µg/mL (≈ 23.2 µM), the MIC ([10]; agar-dilution, Klebsiella pneumoniae KAE, read-out: MIC) was > 128 µg/mL and the MIC [11] was 8 µg/mL (≈ 11.6 µM). The MIC ([12]; agar-dilution, Streptococcus 9960, read-out: MIC) was 32 µg/mL (≈ 46.5 µM), the MIC [13] was 2 µg/mL (≈ 2.9 µM) and the MIC ([14]; agar-dilution, Streptococcus pyogenes C203, read-out: MIC) was 4 µg/mL (≈ 5.81 µM). It also gave an MIC (Escherichia coli TEM) of 8 µg/mL (≈ 11.6 µM), an MIC [15] of 8 µg/mL (≈ 11.6 µM) and an MIC (Escherichia coli EC14) of 128 µg/mL (≈ 186 µM). For the same molecule, the MIC ([16]; broth-dilution microtiter, Pasteurella hemolytica 41D, read-out: MIC) was 6.25 µg/mL (≈ 9.07 µM), the MIC (Mycoplasma synoviae; broth-dilution microtiter, Mycoplasma synoviae, read-out: MIC) was 12.5 µg/mL (≈ 18.1 µM) and the MIC ([17]; broth-dilution microtiter, Pasteurella multocida 68C, read-out: MIC) was 3.12 µg/mL (≈ 4.53 µM). For the same molecule, the MIC ([18]; broth-dilution microtiter, Pasteurella hemolytica 22C, read-out: MIC) was 6.25 µg/mL (≈ 9.07 µM), the MIC (Mycoplasma gallisepticum; broth-dilution microtiter, Mycoplasma gallisepticum, read-out: MIC) was 3.12 µg/mL (≈ 4.53 µM) and the MIC ([19]; broth-dilution microtiter, Pasteurella multocida 60A, Avian isolate, read-out: MIC) was 3.12 µg/mL (≈ 4.53 µM). For the same molecule, the MIC ([20]; broth-dilution microtiter, Mycoplasma gallisepticum 34159, Resistant strain, read-out: MIC) was 50 µg/mL (≈ 72.6 µM), the MIC (Mycoplasma hyorhinis; broth-dilution microtiter, Mycoplasma hyorhinis, read-out: MIC) was 50 µg/mL (≈ 72.6 µM) and the MIC ([21]; broth-dilution microtiter, Pasteurella multocida 40G, read-out: MIC) was 6.25 µg/mL (≈ 9.07 µM). It also gave an MIC ([22]; broth-dilution microtiter, Pasteurella multocida 22A, read-out: MIC) of 12.5 µg/mL (≈ 18.1 µM), an MIC ([23]; broth-dilution microtiter, Pasteurella multocida 17E, Bovine isolate, read-out: MIC) of 3.12 µg/mL (≈ 4.53 µM) and an MIC (Streptococcus sp. 80; broth-dilution microtiter, Streptococcus sp. 80, read-out: MIC) of 6.25 µg/mL (≈ 9.07 µM). The MIC ([24]; broth-dilution microtiter, Pasteurella hemolytica 23C, read-out: MIC) was 6.25 µg/mL (≈ 9.07 µM), the MIC ([25]; broth-dilution microtiter, Mycoplasma gallisepticum 41313, Resistant strain, read-out: MIC) was 50 µg/mL (≈ 72.6 µM) and the MIC (Staphylococcus aureus; broth-dilution microtiter, read-out: MIC) was 12.5 µg/mL (≈ 18.1 µM). For the same molecule, the “Number of Deaths/Number Treated” value (Pasteurella multocida) was 1/10.

Source: patent publication US4468511A, “C-20- And C-23-Modified macrolide derivatives” (Eli Lilly and Company, priority 1983, dated 1984)
